# Assay results taken from the kinase profiling compilation of Christmann-Franck et al. (2016).
# Several values for one entry are separate records, joined by “and”; a condition that tells them apart may be missing. Equal values may be shown once.
# Columns and labels:
# Test in all cases: radiometric filter-binding kinase assay, Kinase HotSpot
# Details in all cases: compound 0.5 µM; ATP 10 µM
# AURKA (human) = AURKA (human) (UniProt O14965)
# CAMK2G (human) = CAMK2G (human) (UniProt Q13555)
# CAMKK1 (human) = CAMKK1 (human) (UniProt Q8N5S9)
# CAMKK1 (human), sequence (Q8N5S9 whole entry, looked up): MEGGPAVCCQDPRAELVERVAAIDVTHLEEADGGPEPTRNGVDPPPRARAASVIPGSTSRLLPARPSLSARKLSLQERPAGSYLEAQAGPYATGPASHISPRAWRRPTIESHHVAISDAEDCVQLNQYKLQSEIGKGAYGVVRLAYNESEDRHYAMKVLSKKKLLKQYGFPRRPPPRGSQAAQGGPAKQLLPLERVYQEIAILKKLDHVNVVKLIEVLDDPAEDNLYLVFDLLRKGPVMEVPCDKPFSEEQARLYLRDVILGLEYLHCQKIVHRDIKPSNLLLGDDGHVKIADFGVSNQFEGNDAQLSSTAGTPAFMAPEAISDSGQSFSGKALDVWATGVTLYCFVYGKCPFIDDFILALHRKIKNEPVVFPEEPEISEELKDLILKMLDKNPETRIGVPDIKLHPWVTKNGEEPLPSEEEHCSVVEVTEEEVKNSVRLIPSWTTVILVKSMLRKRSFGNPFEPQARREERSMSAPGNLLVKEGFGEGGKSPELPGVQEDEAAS
# CAMKK2 (human) = CAMKK2 (human) (UniProt Q96RR4)
# CDK1 CCNB1 (human) = CDK1 CCNB1 (human) (UniProt P06493+P14635)
# CDK1 CCNB1 (human), sequence (P06493 whole entry, looked up): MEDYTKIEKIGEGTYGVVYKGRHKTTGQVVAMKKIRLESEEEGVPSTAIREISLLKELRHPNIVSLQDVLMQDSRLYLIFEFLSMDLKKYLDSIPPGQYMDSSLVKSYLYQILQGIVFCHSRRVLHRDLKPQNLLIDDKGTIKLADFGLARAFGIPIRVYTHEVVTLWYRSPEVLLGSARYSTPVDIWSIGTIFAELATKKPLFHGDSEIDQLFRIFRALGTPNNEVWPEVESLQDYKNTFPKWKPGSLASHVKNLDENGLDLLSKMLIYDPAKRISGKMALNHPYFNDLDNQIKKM
# CDK1 CCNB1 (human), sequence (P14635 whole entry, looked up): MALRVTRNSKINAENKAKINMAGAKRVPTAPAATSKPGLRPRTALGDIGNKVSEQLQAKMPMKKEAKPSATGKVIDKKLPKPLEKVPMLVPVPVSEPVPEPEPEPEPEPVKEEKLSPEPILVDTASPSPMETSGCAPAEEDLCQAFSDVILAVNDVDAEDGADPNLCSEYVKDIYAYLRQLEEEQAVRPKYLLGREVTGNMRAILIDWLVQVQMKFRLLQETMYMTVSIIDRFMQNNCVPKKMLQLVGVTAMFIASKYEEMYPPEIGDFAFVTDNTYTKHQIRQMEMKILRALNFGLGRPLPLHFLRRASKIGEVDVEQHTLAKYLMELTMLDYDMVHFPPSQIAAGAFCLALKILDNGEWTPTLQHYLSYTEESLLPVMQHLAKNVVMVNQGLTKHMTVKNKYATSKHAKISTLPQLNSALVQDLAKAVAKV
# CDK5 CDK5R1 p35 (human) = CDK5 CDK5R1 p35 (human) (UniProt Q00535+Q15078)
# CDK9 CCNK (human) = CDK9 CCNK (human) (UniProt O75909+P50750)
# CHEK2 (human) = CHEK2 (human) (UniProt O96017)
# CHEK2 (human), sequence (O96017 whole entry, looked up): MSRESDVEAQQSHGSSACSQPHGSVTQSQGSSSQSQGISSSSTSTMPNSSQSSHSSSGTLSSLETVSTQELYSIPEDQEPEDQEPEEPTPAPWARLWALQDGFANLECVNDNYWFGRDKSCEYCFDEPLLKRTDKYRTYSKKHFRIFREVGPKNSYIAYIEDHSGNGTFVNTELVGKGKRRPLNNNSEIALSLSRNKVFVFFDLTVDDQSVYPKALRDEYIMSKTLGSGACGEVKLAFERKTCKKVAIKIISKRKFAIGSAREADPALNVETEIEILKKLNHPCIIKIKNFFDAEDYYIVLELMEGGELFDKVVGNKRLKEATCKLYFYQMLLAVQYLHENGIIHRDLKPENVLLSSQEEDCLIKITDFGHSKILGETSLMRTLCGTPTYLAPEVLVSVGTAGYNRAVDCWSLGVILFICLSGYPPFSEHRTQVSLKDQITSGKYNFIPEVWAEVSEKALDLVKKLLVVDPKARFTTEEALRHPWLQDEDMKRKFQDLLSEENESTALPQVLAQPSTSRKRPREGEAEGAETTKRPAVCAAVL
# CSNK1G2 (human) = CSNK1G2 (human) (UniProt P78368)
# CSNK1G2 (human), sequence (P78368 whole entry, looked up): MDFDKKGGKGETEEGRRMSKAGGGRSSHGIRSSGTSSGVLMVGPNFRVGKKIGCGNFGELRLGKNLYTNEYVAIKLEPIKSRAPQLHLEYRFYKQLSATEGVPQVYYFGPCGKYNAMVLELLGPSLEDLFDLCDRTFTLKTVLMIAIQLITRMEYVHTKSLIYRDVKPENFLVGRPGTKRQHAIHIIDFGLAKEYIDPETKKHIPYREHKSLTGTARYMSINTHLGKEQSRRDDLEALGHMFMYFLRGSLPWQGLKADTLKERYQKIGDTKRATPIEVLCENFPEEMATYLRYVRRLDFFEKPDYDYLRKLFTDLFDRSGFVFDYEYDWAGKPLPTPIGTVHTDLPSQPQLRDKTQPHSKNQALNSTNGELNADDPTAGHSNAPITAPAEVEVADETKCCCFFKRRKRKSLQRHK
# DAPK3 (human) = DAPK3 (human) (UniProt O43293)
# DYRK1B (human) = DYRK1B (human) (UniProt Q9Y463)
# DYRK1B (human), sequence (Q9Y463 whole entry, looked up): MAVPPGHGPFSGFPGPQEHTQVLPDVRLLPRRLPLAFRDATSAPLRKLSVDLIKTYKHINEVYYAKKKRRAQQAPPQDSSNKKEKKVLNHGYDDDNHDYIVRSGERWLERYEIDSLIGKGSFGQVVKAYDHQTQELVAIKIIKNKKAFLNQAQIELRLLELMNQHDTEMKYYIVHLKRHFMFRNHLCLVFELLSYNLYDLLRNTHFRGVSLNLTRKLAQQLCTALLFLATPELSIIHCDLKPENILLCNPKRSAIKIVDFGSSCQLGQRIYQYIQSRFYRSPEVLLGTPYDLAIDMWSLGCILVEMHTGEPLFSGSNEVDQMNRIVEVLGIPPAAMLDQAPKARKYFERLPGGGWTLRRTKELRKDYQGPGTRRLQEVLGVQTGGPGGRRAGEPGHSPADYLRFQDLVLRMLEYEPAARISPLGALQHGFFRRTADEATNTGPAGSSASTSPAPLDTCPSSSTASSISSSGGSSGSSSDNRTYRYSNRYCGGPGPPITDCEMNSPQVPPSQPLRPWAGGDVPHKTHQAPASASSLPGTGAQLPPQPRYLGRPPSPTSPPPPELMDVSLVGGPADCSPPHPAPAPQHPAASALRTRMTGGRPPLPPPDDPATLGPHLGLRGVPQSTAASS
# EPHA1 (human) = EPHA1 (human) (UniProt P21709)
# EPHA3 (human) = EPHA3 (human) (UniProt P29320)
# FGFR2 (human) = FGFR2 (human) (UniProt P21802)
# FGR (human) = FGR (human) (UniProt P09769)
# FRK (human) = FRK (human) (UniProt P42685)
# FYN (human) = FYN (human) (UniProt P06241)
# FYN (human), sequence (P06241 whole entry, looked up): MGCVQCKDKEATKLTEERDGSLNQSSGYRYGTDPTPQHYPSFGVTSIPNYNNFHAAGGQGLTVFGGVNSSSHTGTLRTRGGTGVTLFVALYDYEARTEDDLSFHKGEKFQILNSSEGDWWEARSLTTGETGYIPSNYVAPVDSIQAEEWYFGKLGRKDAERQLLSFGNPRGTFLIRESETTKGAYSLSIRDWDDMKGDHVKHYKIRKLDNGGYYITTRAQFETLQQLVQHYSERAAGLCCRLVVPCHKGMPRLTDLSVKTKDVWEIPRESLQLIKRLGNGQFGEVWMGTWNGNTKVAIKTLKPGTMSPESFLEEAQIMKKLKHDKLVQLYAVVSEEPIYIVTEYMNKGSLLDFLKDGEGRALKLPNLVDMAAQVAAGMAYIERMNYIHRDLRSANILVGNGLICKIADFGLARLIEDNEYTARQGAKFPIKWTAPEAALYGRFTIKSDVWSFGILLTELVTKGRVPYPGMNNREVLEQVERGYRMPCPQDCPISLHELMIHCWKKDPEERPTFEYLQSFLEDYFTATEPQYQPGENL
# GRK6 (human) = GRK6 (human) (UniProt P43250)
# GSK3B (human) = GSK3B (human) (UniProt P49841)
# LTK (human) = LTK (human) (UniProt P29376)
# LTK (human), sequence (P29376 whole entry, looked up): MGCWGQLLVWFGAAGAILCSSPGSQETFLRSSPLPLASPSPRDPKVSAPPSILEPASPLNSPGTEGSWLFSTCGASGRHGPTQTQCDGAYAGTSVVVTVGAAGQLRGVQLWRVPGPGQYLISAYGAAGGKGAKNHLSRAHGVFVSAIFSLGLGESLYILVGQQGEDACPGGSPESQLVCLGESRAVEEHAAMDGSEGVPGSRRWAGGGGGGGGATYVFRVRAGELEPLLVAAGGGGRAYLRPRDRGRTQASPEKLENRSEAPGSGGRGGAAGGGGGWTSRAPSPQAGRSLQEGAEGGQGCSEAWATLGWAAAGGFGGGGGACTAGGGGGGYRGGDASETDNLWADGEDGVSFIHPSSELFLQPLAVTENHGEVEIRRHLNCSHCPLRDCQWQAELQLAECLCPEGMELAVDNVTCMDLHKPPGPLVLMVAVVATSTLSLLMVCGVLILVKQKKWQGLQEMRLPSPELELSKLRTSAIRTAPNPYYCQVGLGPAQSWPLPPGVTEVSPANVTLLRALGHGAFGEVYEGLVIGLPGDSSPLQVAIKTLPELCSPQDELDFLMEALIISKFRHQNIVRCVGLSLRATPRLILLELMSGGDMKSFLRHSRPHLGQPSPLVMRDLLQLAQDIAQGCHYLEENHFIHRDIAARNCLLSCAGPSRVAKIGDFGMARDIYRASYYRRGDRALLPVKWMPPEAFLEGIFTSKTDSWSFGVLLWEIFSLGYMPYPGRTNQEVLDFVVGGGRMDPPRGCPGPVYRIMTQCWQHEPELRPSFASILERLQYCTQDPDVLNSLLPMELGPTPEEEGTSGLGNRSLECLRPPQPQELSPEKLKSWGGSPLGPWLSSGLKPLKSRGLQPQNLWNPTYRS
# MAP3K2 (human) = MAP3K2 (human) (UniProt Q9Y2U5)
# MAPK14 (human) = MAPK14 (human) (UniProt Q16539)
# MAPK3 (human) = MAPK3 (human) (UniProt P27361)
# MAPKAPK3 (human) = MAPKAPK3 (human) (UniProt Q16644)
# MARK1 (human) = MARK1 (human) (UniProt Q9P0L2)
# MELK (human) = MELK (human) (UniProt Q14680)
# MYLK2 (human) = MYLK2 (human) (UniProt Q9H1R3)
# MYLK2 (human), sequence (Q9H1R3 whole entry, looked up): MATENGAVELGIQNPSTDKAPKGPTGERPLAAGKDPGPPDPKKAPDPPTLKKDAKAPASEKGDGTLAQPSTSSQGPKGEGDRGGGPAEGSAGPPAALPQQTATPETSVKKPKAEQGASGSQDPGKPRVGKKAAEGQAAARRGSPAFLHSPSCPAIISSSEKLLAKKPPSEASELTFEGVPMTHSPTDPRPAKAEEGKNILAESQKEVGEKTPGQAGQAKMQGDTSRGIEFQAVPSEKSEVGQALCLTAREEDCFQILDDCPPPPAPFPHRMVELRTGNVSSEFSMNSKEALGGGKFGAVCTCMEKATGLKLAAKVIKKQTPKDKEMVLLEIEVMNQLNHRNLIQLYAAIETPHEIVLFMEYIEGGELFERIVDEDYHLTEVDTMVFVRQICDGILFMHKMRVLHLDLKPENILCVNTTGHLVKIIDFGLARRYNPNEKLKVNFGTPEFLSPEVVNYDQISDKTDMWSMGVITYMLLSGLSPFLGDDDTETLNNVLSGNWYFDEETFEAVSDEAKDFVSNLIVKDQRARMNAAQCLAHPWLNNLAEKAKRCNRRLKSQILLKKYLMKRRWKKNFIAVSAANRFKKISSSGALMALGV
# NTRK1 (human) = NTRK1 (human) (UniProt P04629)
# PAK1 (human) = PAK1 (human) (UniProt Q13153)
# PAK7 (human) = PAK7 (human) (UniProt Q9P286)
# PKN1 (human) = PKN1 (human) (UniProt Q16512)
# PLK3 (human) = PLK3 (human) (UniProt Q9H4B4)
# PNCK (human) = PNCK (human) (UniProt Q6P2M8)
# PRKCE (human) = PRKCE (human) (UniProt Q02156)
# PRKCH (human) = PRKCH (human) (UniProt P24723)
# PRKG1 (human) = PRKG1 (human) (UniProt Q13976)
# ROS1 (human) = ROS1 (human) (UniProt P08922)
# RPS6KB1 (human) = RPS6KB1 (human) (UniProt P23443)
# SYK (human) = SYK (human) (UniProt P43405)
# ULK1 (human) = ULK1 (human) (UniProt O75385)
SMILES,residual activity (AURKA (human)),residual activity (CAMK2G (human)),residual activity (CAMKK1 (human)),residual activity (CAMKK2 (human)),residual activity (CDK1 CCNB1 (human)),residual activity (CDK5 CDK5R1 p35 (human)),residual activity (CDK9 CCNK (human)),residual activity (CHEK2 (human)),residual activity (CSNK1G2 (human)),residual activity (DAPK3 (human)),residual activity (DYRK1B (human)),residual activity (EPHA1 (human)),residual activity (EPHA3 (human)),residual activity (FGFR2 (human)),residual activity (FGR (human)),residual activity (FRK (human)),residual activity (FYN (human)),residual activity (GRK6 (human)),residual activity (GSK3B (human)),residual activity (LTK (human)),further results
CC(=O)c1ccc(N2CCOCC2)cc1O,132%,90.2%,124%,115%,86.8%,97.1%,106%,104%,102%,98.1%,99.9%,94%,108%,108%,95.6%,91.6%,103%,100%,122%,102%,residual activity (MAP3K2 (human)): 109%; residual activity (MAPK14 (human)): 97.1%; residual activity (MAPK3 (human)): 103%; residual activity (MAPKAPK3 (human)): 105%; residual activity (MARK1 (human)): 96.7%; residual activity (MELK (human)): 102%; residual activity (MYLK2 (human)): 98.6%; residual activity (NTRK1 (human)): 97.2%; residual activity (PAK1 (human)): 93.7%; residual activity (PAK7 (human)): 102%; residual activity (PKN1 (human)): 108%; residual activity (PLK3 (human)): 98.1%; residual activity (PNCK (human)): 103%; residual activity (PRKCE (human)): 93.4%; residual activity (PRKCH (human)): 99.3%; residual activity (PRKG1 (human)): 100% and 84.1%; residual activity (ROS1 (human)): 102%; residual activity (RPS6KB1 (human)): 95.2%; residual activity (SYK (human)): 92.6%; residual activity (ULK1 (human)): 94.8%
c1ccc(-c2n[nH]c3c2oc2ccccc23)cc1,103%,93.3%,97%,87.5%,87.7%,85.8%,86.2%,101%,86.4%,91.5%,101%,78.6%,104%,97%,116%,89.9%,104%,102%,105%,94.8%,residual activity (MAP3K2 (human)): 85.9%; residual activity (MAPK14 (human)): 102%; residual activity (MAPK3 (human)): 87.3%; residual activity (MAPKAPK3 (human)): 100%; residual activity (MARK1 (human)): 98.6%; residual activity (MELK (human)): 77%; residual activity (MYLK2 (human)): 66.6%; residual activity (NTRK1 (human)): 85.6%; residual activity (PAK1 (human)): 94.9%; residual activity (PAK7 (human)): 70.9%; residual activity (PKN1 (human)): 94.1%; residual activity (PLK3 (human)): 99.2%; residual activity (PNCK (human)): 98.6%; residual activity (PRKCE (human)): 86%; residual activity (PRKCH (human)): 80.9%; residual activity (PRKG1 (human)): 102% and 103%; residual activity (ROS1 (human)): 107%; residual activity (RPS6KB1 (human)): 99.9%; residual activity (SYK (human)): 97.7%; residual activity (ULK1 (human)): 124%
CC[n+]1c(/C=C/N(C)c2ccccc2)n(-c2ccccc2)c2ccc(-c3nc4ccccc4s3)cc21,88.1%,103%,115%,115%,105%,97.6%,106%,105%,101%,95.4%,101%,77.1%,99.4%,100%,94.1%,97.1%,99.2%,98.9%,105%,90.7%,residual activity (MAP3K2 (human)): 90.3%; residual activity (MAPK14 (human)): 94.9%; residual activity (MAPK3 (human)): 112%; residual activity (MAPKAPK3 (human)): 100%; residual activity (MARK1 (human)): 104%; residual activity (MELK (human)): 93.4%; residual activity (MYLK2 (human)): 95.8%; residual activity (NTRK1 (human)): 99.1%; residual activity (PAK1 (human)): 87.5%; residual activity (PAK7 (human)): 98.6%; residual activity (PKN1 (human)): 85.7%; residual activity (PLK3 (human)): 104%; residual activity (PNCK (human)): 114%; residual activity (PRKCE (human)): 97.7%; residual activity (PRKCH (human)): 101%; residual activity (PRKG1 (human)): 104% and 105%; residual activity (ROS1 (human)): 99.1%; residual activity (RPS6KB1 (human)): 96.8%; residual activity (SYK (human)): 104%; residual activity (ULK1 (human)): 90.9%
